Some test systems named below: SNB-19 CNS; IGROV1 ovarian; RPMI-8226 leukemia; NCI-H460 lung; TK-10 renal; A549 NSCLC; K-562 leukemia; UO-31 renal; HCT-116 colon; MDA-MB-435; HCC-2998 colon.
Holding throughout (experiment): growth of human tumour cells (NCI), 48 h

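Where inhibition never reached the appropriate level, the endpoint shown equals the highest concentration tested. Otherwise, values were interpolated linearly from a five-concentration, 48-hour dose response in 96-well plates. Definition used: TGI = concentration required for complete inhibition of growth.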 Where only a bound is given, the exact number is not on record here.

With `O=c1oc2ccccc2c(O)c1C(c1ccc2ccccc2c1)c1c(O)c2ccccc2oc1=O`, the TGI in the assay with SNB-19 CNS was above 100 µM; with IGROV1 ovarian, 90.3 µM; in the assay on RPMI-8226 leukemia it was above 100 µM; in the assay on NCI-H460 lung, 73.2 µM; in the assay with TK-10 renal, above 100 µM; with A549 NSCLC it was above 100 µM. The TGI is above 100 µM with K-562 leukemia; 35.4 µM with UO-31 renal; above 100 µM with HCT-116 colon; 59.7 µM in the assay on MDA-MB-435; 32.8 µM in the assay on HCC-2998 colon.
`NC(=O)CC1(O)C=CC(=O)C=C1`: the TGI with SNB-19 CNS, in the assay with IGROV1 ovarian, in the assay with RPMI-8226 leukemia, in the assay on NCI-H460 lung, in the assay with TK-10 renal and in the assay on A549 NSCLC was above 100 µM throughout. Besides, the TGI in the assay on K-562 leukemia, in the assay with UO-31 renal, with HCT-116 colon, in the assay with MDA-MB-435 and in the assay on HCC-2998 colon was above 100 µM in each case.
For `COc1c(C(CC(C)C)OC(C)=O)ccc2c1C(=O)OCc1cc(C)cc(O)c1O2` (stereo not drawn), the TGI in the assay with SNB-19 CNS was 28.7 µM; with IGROV1 ovarian, 30.4 µM; with RPMI-8226 leukemia, above 100 µM; with NCI-H460 lung, 26.8 µM; in the assay with TK-10 renal it was 31.8 µM; in the assay with A549 NSCLC, 25.8 µM. Besides, the TGI with K-562 leukemia was above 100 µM; with UO-31 renal, 19.7 µM; in the assay with HCT-116 colon, 25.1 µM; in the assay on MDA-MB-435 it was 26.6 µM; in the assay on HCC-2998 colon, 25.4 µM.
`O=c1[nH]c2nccn2c(Cl)c1Br`: the TGI in the assay on SNB-19 CNS was 70.5 µM; in the assay with IGROV1 ovarian, 45.4 µM; in the assay with RPMI-8226 leukemia, above 100 µM; in the assay with NCI-H460 lung, above 100 µM; in the assay with TK-10 renal it was above 100 µM; in the assay with A549 NSCLC, above 100 µM. Besides, the TGI in the assay with K-562 leukemia was 39.1 µM; in the assay on UO-31 renal it was above 100 µM; with HCT-116 colon, above 100 µM; in the assay on MDA-MB-435, 42 µM; in the assay with HCC-2998 colon it was 36 µM.
Turning to `Clc1cccc(Cl)c1C1SCc2nc3cc4ccccc4cc3n21` (stereo not drawn), the TGI with SNB-19 CNS, in the assay on IGROV1 ovarian, in the assay with RPMI-8226 leukemia, with NCI-H460 lung, with TK-10 renal and in the assay on A549 NSCLC was above 100 µM each time. Also, the TGI in the assay with K-562 leukemia, in the assay on UO-31 renal, in the assay with HCT-116 colon, with MDA-MB-435 and with HCC-2998 colon was above 100 µM in each case.
Take `CC1=CC[C@@]2(C)[C@@H]([C@@H]1C)[C@H]1CC[C@@H]3[C@@]4(C)CC[C@H](O)C(C)(C)[C@@H]4CC[C@@]3(C)[C@]1(C)C[C@@H]2O`: the TGI is above 66.4 µM in the assay with SNB-19 CNS; 42.2 µM in the assay on IGROV1 ovarian; above 100 µM in the assay with RPMI-8226 leukemia; above 67.7 µM in the assay with NCI-H460 lung; above 70.7 µM in the assay with TK-10 renal; above 100 µM in the assay on A549 NSCLC. Also, the TGI was above 100 µM with K-562 leukemia; above 100 µM with UO-31 renal; above 58 µM with HCT-116 colon; 70.2 µM in the assay with MDA-MB-435; 37.9 µM in the assay with HCC-2998 colon.
In the case of `CC1=C/C(=N\N(C)C)C(C(O)(C(F)(F)F)C(F)(F)F)C(C)(C)C1` (stereo not drawn), the TGI in the assay on SNB-19 CNS, with IGROV1 ovarian, in the assay with RPMI-8226 leukemia, in the assay with NCI-H460 lung, in the assay with TK-10 renal and with A549 NSCLC was above 100 µM throughout. The TGI in the assay on K-562 leukemia, with UO-31 renal, with HCT-116 colon, with MDA-MB-435 and in the assay on HCC-2998 colon was above 100 µM in each case.
On to `COc1ccc(OC)c2c(=O)cc(-c3ccccc3)[nH]c12`, for which the TGI in the assay with SNB-19 CNS, with IGROV1 ovarian, with RPMI-8226 leukemia, in the assay on NCI-H460 lung, in the assay with TK-10 renal and in the assay with A549 NSCLC was above 100 µM in each case. The TGI with K-562 leukemia, in the assay with UO-31 renal, in the assay on HCT-116 colon, in the assay with MDA-MB-435 and in the assay on HCC-2998 colon was above 100 µM in each case.
For the molecule `Cc1nn(-c2ccccc2)c2nc3c(c(C)nn3-c3ccccc3)c(-c3ccccc3Br)c12`, the TGI with SNB-19 CNS, in the assay on IGROV1 ovarian, in the assay on RPMI-8226 leukemia, in the assay on NCI-H460 lung, with TK-10 renal and in the assay with A549 NSCLC was above 100 µM in each case. Also, the TGI with K-562 leukemia, with UO-31 renal, in the assay on HCT-116 colon, with MDA-MB-435 and with HCC-2998 colon was above 100 µM in each case.
Take `CCC1=NC(N/N=C/c2ccccc2O)=N/C1=C\c1ccccc1O`: the TGI with SNB-19 CNS is above 100 µM; with IGROV1 ovarian it was 56.9 µM; in the assay on RPMI-8226 leukemia, 53.8 µM; in the assay on NCI-H460 lung, 18.7 µM; in the assay on TK-10 renal, above 54.6 µM; in the assay with A549 NSCLC, above 100 µM. Besides, the TGI with K-562 leukemia is above 100 µM; in the assay on UO-31 renal, 20.4 µM; in the assay on HCT-116 colon, 39.8 µM; in the assay with MDA-MB-435, above 81.2 µM; in the assay with HCC-2998 colon, 36.4 µM.
As to `COc1ccc2c(c1)-c1c(c3ccccc3n1CCN1CCCCC1)CC2`, the TGI is 66.4 µM with SNB-19 CNS; 41.9 µM in the assay on IGROV1 ovarian; 36.3 µM in the assay with RPMI-8226 leukemia; 32.4 µM with NCI-H460 lung; 54.6 µM in the assay with TK-10 renal; above 88.9 µM with A549 NSCLC. Moreover, the TGI was 18 µM with K-562 leukemia; 30 µM in the assay on UO-31 renal; 29.5 µM in the assay on HCT-116 colon; 73.2 µM with MDA-MB-435; 19.2 µM in the assay with HCC-2998 colon.
Regarding `CC/C(=C/OC)P1(=O)OC(C)(C)CN1C(C)(C)C` (stereo not drawn), the TGI in the assay on SNB-19 CNS, in the assay with IGROV1 ovarian, with RPMI-8226 leukemia, in the assay with NCI-H460 lung, with TK-10 renal and in the assay on A549 NSCLC was above 100 µM each time. Moreover, the TGI in the assay on K-562 leukemia, in the assay on UO-31 renal, with HCT-116 colon, in the assay with MDA-MB-435 and in the assay with HCC-2998 colon was above 100 µM in each case.
Regarding `CC(C)[Si](OCC/C=C/C1CCC(=O)C1C(O)C1CCCCC1)(C(C)C)C(C)C` (stereo not drawn), the TGI with SNB-19 CNS was 32.6 µM; with IGROV1 ovarian it was 28.5 µM; in the assay with RPMI-8226 leukemia, 32.8 µM; in the assay on NCI-H460 lung, 30.7 µM; with TK-10 renal it was 32.7 µM; in the assay on A549 NSCLC, 28.7 µM. The TGI was found to be 47 µM with K-562 leukemia; 30.2 µM in the assay with UO-31 renal; 28 µM in the assay with HCT-116 colon; 34.5 µM in the assay on MDA-MB-435; 23.2 µM in the assay on HCC-2998 colon.

These data come from PubChem BioAssay (NCI).
